Measured values: patent US7879887B2, “α-amino acid derivatives and medicaments containing the same as an active ingredient” (Nissan Chemical Industries, Ltd., priority 2006, dated 2011)

How the values were obtained:
Aurora A = molecular target: T1, Aurora A (Homo sapiens, UniProt O14965); experiment: In vitro kinase assay, Aurora A; type: biochemical; settings: recombinant protein (Upstate)
T1 construct: purchased Upstate Inc. 14-511
T1 sequence (O14965 1-403): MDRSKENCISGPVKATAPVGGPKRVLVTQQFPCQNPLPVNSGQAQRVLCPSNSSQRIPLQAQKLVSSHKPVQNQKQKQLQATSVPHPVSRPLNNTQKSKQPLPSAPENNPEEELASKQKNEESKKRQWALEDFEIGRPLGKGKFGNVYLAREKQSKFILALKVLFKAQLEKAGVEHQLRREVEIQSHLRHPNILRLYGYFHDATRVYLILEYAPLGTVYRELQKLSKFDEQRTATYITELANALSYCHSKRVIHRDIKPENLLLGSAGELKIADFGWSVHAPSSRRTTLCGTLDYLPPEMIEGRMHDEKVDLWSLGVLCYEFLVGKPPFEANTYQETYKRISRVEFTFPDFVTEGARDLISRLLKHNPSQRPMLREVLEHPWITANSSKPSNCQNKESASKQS
Experimental: Inhibitory activity against Aurora A, CDK1/Cyclin B complex, CDK2/Cyclin E complex and CDK3/Cyclin E complex were measured by in vitro kinase assay using recombinant proteins. The assays were carried out by using recombinant proteins (Upstate Inc.) for Aurora A, CDK1/Cyclin B complex, CDK2/Cyclin E complex and CDK3/Cyclin E complex (respective cat. nos. 14-511, 14-450, 14-448 and 14-487), in accordance with the procedure described in the product instructions thereof. The 50% inhibitory concentrations (IC50 values) were calculated by assigning measured values in the case of not containing a test compound to an inhibition of 0%, and assigning measured values in the case of not containing a test compound and enzyme to an inhibition of 100%.

CDK2/Cyclin E complex = CDK2/Cyclin E complex (Homo sapiens, UniProt P24941); experiment: In vitro kinase assay, CDK2/Cyclin E complex; type: biochemical; settings: recombinant protein (Upstate); read-out: CDK2/cyclinE IC50
Experimental: (§1) Inhibitory activity against Aurora A, CDK1/Cyclin B complex, CDK2/Cyclin E complex and CDK3/Cyclin E complex were measured by in vitro kinase assay using recombinant proteins.

CDK3/Cyclin E complex = molecular target: T2, CDK3/Cyclin E complex (Homo sapiens, UniProt Q00526); experiment: In vitro kinase assay, CDK3/Cyclin E complex; type: biochemical; settings: recombinant protein (Upstate); read-out: CDK3/cyclinE IC50
T2 construct: purchased Upstate Inc. 14-487
Experimental: as §1

[1] = system: prostate cancer cell line DU 145; experiment: Cell proliferation inhibitory activity, DU 145; type: cell-based, human; settings: cells counted 4 days later with Cell Counting Kit-8
Experimental: (§2) Evaluations were carried out using colon carcinoma cell line SW620 (Cat. No. CCL-227), lung carcinoma cell line NCI-H460 (Cat. No. HTB-177), prostate cancer cell line DU 145 (Cat. No. HTB-81), breast cancer cell line MDA-MB-231 (Cat. No. HTB26) and leukemia cell line KG-1a (Cat. No. CCL-246.1) purchased from ATCC, pancreatic cancer cell line MIAPaCa-2 (Cat. No. CRL-1420) purchased from Dainippon Pharmaceutical, and ovarian cancer cell line IGROV1 received from the Netherland Cancer Institute. The cells were cultured under the conditions recommended by the supplier for each cell line, or with respect to IGROV1, according to the method described in Cancer Res. 59: 4559-4563, 1999. Cells suspended in media were added to solutions containing the test substances at various concentrations followed by culturing in a 5% CO2 incubator at 37° C. The numbers of cells were counted 4 days later with the Cell Counting Kit-8. IC50 values were calculated by assigning measured values in the case of not containing a test substance to an inhibition of 0%, and assigning measured values in the case of not containing a test substance or cells to an inhibition of 100%.

leukemia cell line KG-1a = experiment: Cell proliferation inhibitory activity, KG-1a; type: cell-based; settings: cells counted 4 days later with Cell Counting Kit-8
Experimental: as §2

[2] = system: colon carcinoma cell line SW620; experiment: Cell proliferation inhibitory activity, SW620; type: cell-based, human; settings: cells counted 4 days later with Cell Counting Kit-8
Experimental: as §2

T2 sequence (Q00526 whole entry): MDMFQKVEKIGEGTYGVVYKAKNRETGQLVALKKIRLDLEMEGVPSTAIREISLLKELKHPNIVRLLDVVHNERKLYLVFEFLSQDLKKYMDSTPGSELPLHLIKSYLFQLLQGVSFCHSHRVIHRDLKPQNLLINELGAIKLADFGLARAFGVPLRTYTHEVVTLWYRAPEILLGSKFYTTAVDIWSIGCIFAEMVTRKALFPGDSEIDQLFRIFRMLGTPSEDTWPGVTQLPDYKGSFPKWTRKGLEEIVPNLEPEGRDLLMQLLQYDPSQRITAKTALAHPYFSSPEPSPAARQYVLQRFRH
T2 sequence (P24864 whole entry partner): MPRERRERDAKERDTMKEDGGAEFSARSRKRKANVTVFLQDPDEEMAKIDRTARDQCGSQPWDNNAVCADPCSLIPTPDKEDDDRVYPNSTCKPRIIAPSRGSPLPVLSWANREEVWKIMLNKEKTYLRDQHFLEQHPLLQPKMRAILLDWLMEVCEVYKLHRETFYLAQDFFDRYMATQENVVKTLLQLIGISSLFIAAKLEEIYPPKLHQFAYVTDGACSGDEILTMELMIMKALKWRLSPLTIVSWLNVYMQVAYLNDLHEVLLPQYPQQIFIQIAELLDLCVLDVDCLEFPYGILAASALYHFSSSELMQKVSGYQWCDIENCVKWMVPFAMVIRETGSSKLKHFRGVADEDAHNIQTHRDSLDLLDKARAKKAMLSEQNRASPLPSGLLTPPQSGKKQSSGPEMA

Structure (SMILES)	IC50 (CDK2/Cyclin E complex)	IC50 (CDK3/Cyclin E complex)	IC50 (leukemia cell line KG-1a; Homo sapiens, 96 h)	IC50 ([2]; Homo sapiens, SW-620, 96 h)	also measured
CCOC(=O)c1cc(NC(C)(C)C(=O)Nc2nc3ccc4[nH]ncc4c3s2)ccc1Cl [compound 44]	160 nM	157 nM	< 100 nM	–	IC50 (Aurora A): 107 nM; IC50 ([1]; Homo sapiens, 96 h): 4500 nM
NC(=O)CC(Nc1cccc(O)c1)C(=O)Nc1nc2ccc3[nH]ncc3c2s1 (stereo not drawn) [compound 109]	56 nM	55 nM	< 100 nM	–	IC50 (Aurora A): 364 nM
COc1cccc(NC2(C(=O)Nc3nc4ccc5[nH]ncc5c4s3)CC2)c1 [compound 119]	–	–	–	–	IC50 [2]: 2600 nM; IC50 (leukemia cell line KG-1a): 300 nM
CC(C)(Nc1ccc(Cl)c(NC(=O)C2CC2)c1)C(=O)Nc1nc2c(C(F)(F)F)cc3[nH]ncc3c2s1 [compound 80]	154 nM	165 nM	–	2300 nM	IC50 ([1]; Homo sapiens, 96 h): 4100 nM
CC(C)(Nc1ccc(F)cc1)C(=O)Nc1nc2c(C(F)(F)F)cc3[nH]ncc3c2s1 [compound 74]	302 nM	163 nM	–	2700 nM	IC50 ([1]; Homo sapiens, 96 h): 3900 nM
Cc1cc2[nH]ncc2c2sc(NC(=O)CNc3ccccc3)nc12 [compound 19]	190 nM	242 nM	–	2900 nM	–
O=C(CNc1cccc(O)c1)Nc1nc2ccc3[nH]ncc3c2s1 [compound 2]	82 nM	128 nM	< 100 nM	1200 nM	IC50 (Aurora A): 148 nM
O=C(CNc1ccc2[nH]ncc2c1)Nc1nc2ccc3[nH]ncc3c2s1 [compound 13]	417 nM	–	–	–	–
CC(C)(Nc1cccc(F)c1)C(=O)Nc1nc2ccc3[nH]ncc3c2s1 [compound 42]	434 nM	–	< 100 nM	2200 nM	–
CC(C)(Nc1ccc(Cl)cc1)C(=O)Nc1nc2c(C(F)(F)F)cc3[nH]ncc3c2s1 [compound 59]	–	–	–	–	IC50 [2]: 2200 nM; IC50 [1]: 4200 nM
CC(C)OC(=O)c1cc(NC(C)(C)C(=O)Nc2nc3ccc4[nH]ncc4c3s2)ccc1Cl [compound 47]	260 nM	343 nM	< 100 nM	–	IC50 (Aurora A): 148 nM
CC(C)(Nc1ccc(F)c(F)c1)C(=O)Nc1nc2c(C(F)(F)F)cc3[nH]ncc3c2s1 [compound 72]	335 nM	180 nM	–	2400 nM	IC50 ([1]; Homo sapiens, 96 h): 3500 nM
CN(C)C(=O)c1cc(NC2(C(=O)Nc3nc4ccc5[nH]ncc5c4s3)CC2)ccc1Cl [compound 124]	–	–	–	–	IC50 (leukemia cell line KG-1a): 100 nM
COC(=O)c1cccc(NCC(=O)Nc2nc3ccc4[nH]ncc4c3s2)c1 [compound 134]	339 nM	477 nM	< 100 nM	1900 nM	–
COc1cc(NCC(=O)Nc2nc3ccc4[nH]ncc4c3s2)ccc1Cl [compound 4]	335 nM	468 nM	100 nM	2000 nM	–
O=C(Nc1nc2ccc3[nH]ncc3c2s1)C1CCCN1c1ccc(Cl)cc1 (stereo not drawn) [compound 111]	100 nM	262 nM	500 nM	2300 nM	–
CC(=O)Nc1cc(NC(C(=O)Nc2nc3ccc4[nH]ncc4c3s2)c2ccccc2)ccc1Cl (stereo not drawn) [compound 131]	277 nM	427 nM	–	3000 nM	IC50 (Aurora A): 94 nM
O=C(CNc1ccccc1)Nc1nc2c(F)cc3[nH]ncc3c2s1 [compound 20]	–	–	–	–	IC50 [2]: 1300 nM; IC50 (leukemia cell line KG-1a): 100 nM
CC(C)(Nc1ccc(Cl)cc1C(=O)NCC(N)=O)C(=O)Nc1nc2c(C(F)(F)F)cc3[nH]ncc3c2s1 [compound 88]	449 nM	386 nM	–	2900 nM	–
CC(=O)Nc1cccc(NCC(=O)Nc2nc3ccc4[nH]ncc4c3s2)c1 [compound 106]	55 nM	153 nM	< 100 nM	–	–
O=C(CNc1cc(F)cc(F)c1)Nc1nc2ccc3[nH]ncc3c2s1 [compound 5]	–	–	–	–	IC50 (leukemia cell line KG-1a): < 100 nM
COc1ccc(NC(C)(C)C(=O)Nc2nc3ccc4[nH]ncc4c3s2)cc1 [compound 40]	340 nM	–	200 nM	2300 nM	–

Structure (SMILES)	IC50 (CDK2/Cyclin E complex)	IC50 (CDK3/Cyclin E complex)	IC50 (leukemia cell line KG-1a; Homo sapiens, 96 h)	IC50 ([2]; Homo sapiens, SW-620, 96 h)	also measured
CC(C)(Nc1cccc(C(=O)O)c1)C(=O)Nc1nc2c(C(F)(F)F)cc3[nH]ncc3c2s1 [compound 66]	–	333 nM	–	–	IC50 (Aurora A): 294 nM
O=C(CNc1cccc(Cl)c1)Nc1nc2ccc3[nH]ncc3c2s1 [compound 8]	171 nM	–	–	–	–
O=C(CNc1ccccc1)Nc1nc2c(C(F)(F)F)cc3[nH]ncc3c2s1 [compound 18]	–	380 nM	–	–	–
COc1cccc(NC(CC(C)C)C(=O)Nc2nc3ccc4[nH]ncc4c3s2)c1 (stereo not drawn) [compound 26]	–	–	–	–	IC50 (leukemia cell line KG-1a): 200 nM
CC(C)OC(=O)c1cc(NC2(C(=O)Nc3nc4ccc5[nH]ncc5c4s3)CC2)ccc1Cl [compound 123]	141 nM	195 nM	–	2300 nM	–
COc1cccc(NC(C)C(=O)Nc2nc3ccc4[nH]ncc4c3s2)c1 (stereo not drawn) [compound 22]	–	–	< 100 nM	1700 nM	IC50 (Aurora A): 387 nM
COc1cc(NC(C)(C)C(=O)Nc2nc3ccc4[nH]ncc4c3s2)ccc1Cl [compound 43]	–	–	200 nM	–	IC50 (Aurora A): 347 nM
CC(C)(Nc1ccc2[nH]c(=O)[nH]c2c1)C(=O)Nc1nc2c(C(F)(F)F)cc3[nH]ncc3c2s1 [compound 83]	343 nM	–	–	–	–
CC(C)(Nc1cccc(F)c1)C(=O)Nc1nc2c(C(F)(F)F)cc3[nH]ncc3c2s1 [compound 67]	–	371 nM	–	3000 nM	–
O=C(CNc1ccc2cn[nH]c2c1)Nc1nc2ccc3[nH]ncc3c2s1 [compound 15]	40 nM	88 nM	–	–	–
CC(C)(Nc1cccc(NS(C)(=O)=O)c1)C(=O)Nc1nc2c(C(F)(F)F)cc3[nH]ncc3c2s1 [compound 79]	171 nM	266 nM	–	2400 nM	IC50 ([1]; Homo sapiens, 96 h): 3100 nM
CCOC(=O)c1cc(NC(C)(C)C(=O)Nc2nc3ccc4[nH]ncc4c3s2)ccc1F [compound 49]	–	–	< 100 nM	–	IC50 (Aurora A): 265 nM
O=C(CNc1ccccc1)Nc1nc2ccc3[nH]nc(Cl)c3c2s1 [compound 108]	–	–	–	–	IC50 (leukemia cell line KG-1a): 300 nM
CCC(=O)Nc1cc(NC(C(=O)Nc2nc3c(C(F)(F)F)cc4[nH]ncc4c3s2)c2ccccc2)ccc1Cl (stereo not drawn) [compound 31]	372 nM	353 nM	–	2700 nM	–
CON(C)C(=O)c1cc(Cl)ccc1NC(C)(C)C(=O)Nc1nc2c(C(F)(F)F)cc3[nH]ncc3c2s1 [compound 100]	391 nM	344 nM	300 nM	3300 nM	–
O=C(CNc1ccc(F)cc1)Nc1nc2ccc3[nH]ncc3c2s1 [compound 105]	205 nM	257 nM	100 nM	1500 nM	–
O=C(Nc1nc2ccc3[nH]ncc3c2s1)C(Nc1cccc(O)c1)c1ccccc1 (stereo not drawn) [compound 27]	–	–	100 nM	–	IC50 (Aurora A): 115 nM
CC(C)(Nc1ccc(Cl)c(NC(=O)OCCO)c1)C(=O)Nc1nc2c(C(F)(F)F)cc3[nH]ncc3c2s1 [compound 89]	225 nM	105 nM	–	2200 nM	IC50 ([1]; Homo sapiens, 96 h): 4500 nM
COc1cccc(NC(C)(C)C(=O)Nc2nc3ccc4[nH]ncc4c3s2)c1 [compound 34]	–	–	100 nM	–	IC50 (Aurora A): 332 nM
COc1cccc(NC(CC(N)=O)C(=O)Nc2nc3ccc4[nH]ncc4c3s2)c1 (stereo not drawn) [compound 110]	320 nM	392 nM	–	–	–
CS(=O)(=O)Nc1cccc(NCC(=O)Nc2nc3ccc4[nH]ncc4c3s2)c1 [compound 14]	224 nM	410 nM	200 nM	–	–
Cc1ccc(NC(C)(C)C(=O)Nc2nc3ccc4[nH]ncc4c3s2)cc1 [compound 39]	143 nM	367 nM	< 100 nM	2000 nM	–
